Patent US4902699A, “Oxime of 1, 2, 5, 6-tetrahydropyridine compounds their use as medicaments and the compositions containing them” (Roussel Uclaf, priority 1987, dated 1990)
Where a name gives a salt, the structure may show the parent alone. Read-outs that look alike come from different tables or passages of the source.

Experiments:
[1] = tested on: central cholinergic system; settings: cited from earlier work
Diarrhoeic activity = experiment: Diarrhoeic activity; design: species or system mice; settings: mouse, in vivo; oral route; dose which causes diarrhoea in 50% of the animals; read-out: DE50 (the source's name)
Protocol: The test is carried out on male mice (CD1 Charles Rivers) weighing […], after fasting for 6 hours. The product dissolved at 5% in methocel is administered by oral route by means of an oesophage probe.
Control animals receive only the excipient.
After treatment, the animals are placed separately in cages of which the base is covered with blotting paper, and they are put under observation for 30, 60, 120 and 180 minutes.
The sheets of absorbent paper are changed after each observation.
The consistency of the feces is evaluated according to the method of Randall and Baruth (Arch. Int. Pharmacodyn. 220, 94, 1976) according to the following scale of values.
1: feces slightly soft, with or without a damp halo
2: feces slightly soft, with a well defined circle of humidity.
3: feces soft with a large circle of humidity.
4: feces without consistency with a very large circle of humidity.
For each product, the dose is noted which causes diarrhoea in 50% of the animals according to the method of Miller and Tainter (Proc. Soc. Exp. Biol. Med., 57, 261, 1944).

[2] = tested on: ileum isolated from guinea-pig; experiment: Test of ileum isolated from guinea-pig, agonist (contracting) activity; settings: Cavia porcellus; negative logarithm of the dose which produces 50% of the maximum effect; read-out: pD2 (converted)
Protocol: Pieces of ileum are removed from guinea-pigs killed by decapitation. The isolated ileum is placed in 10 cm^3 of Tyrode solution at 37° C. and aerated with a mixture of oxygen (95%) and carbon dioxide gas (5%). The contractions due to the products are registered by means of a detector connected to a polygraph. The products to be tested are added at concentrations between 1.10^-3 M and 1.10^-8 M/l.
The products presenting a contracting effect are tested vis-a-vis atropine and hexamethonium in order to establish if the activity is of "muscarine" or "nicotine" type.
The agonist activity is expressed in pD2 (negative logarithm of the dose which produces 50% of the maximum effect).

[3] = tested on: patients having a memory defect; settings: injected by intravenous route; cited from earlier work
Solubility = format: physicochemical; settings: for Solubility in water: H2O
Acute toxicity, oral = experiment: Acute toxicity, oral; design: species or system mice; settings: mouse, in vivo, mortality during 7 days
Protocol: The test was carried out on male mice (CD1 Charles Rivers), of 22 to 24 g, having fasted for 16 hours. […] The mortality is noted during the 7 days following the treatment.

[4] = tested on: male mice (CD1 Charles RAivers); experiment: Variation of the body temperature (duration of action); format: in vivo
Protocol: (§1) The test is carried out on male mice (CD1 Charles RAivers) weighing 25-30 g, having fasted for 6 hours.
The temperature of the body is noted by means of a thermocouple inserted about 1.5 cm in the rectum and connected to an electric temperature recorder. […]
The duration of action of the products is determined, using the doses able to reduce the temperature by 1° to 1.5° C.

[5] = tested on: male mice (CD1 Charles RAivers); experiment: Hypothermic activity; format: in vivo; settings: Mus musculus, read-out: Effective dose (-1° C.)
Protocol: as §1
The temperature of the body is noted by means of a thermocouple inserted about 1.5 cm in the rectum and connected to an electric temperature recorder.
The products are administered by oral or sub-cutaneous route and the temperatures are noted at the instant 0 and at 30 minutes, 1 hour, 2 hours and 2 and a half hours after treatment.
The degree of hypothermia is evaluated as the difference between the treated animals and the controls, and the dose necessary to reduce the body temperature by 1° C. is noted.

| SMILES | ED50 (Diarrhoeic activity) | EC50 [2] | Solubility in 2N HCl (Solubility) | Solubility in 2N NaOH (Solubility) | Solubility in water (Solubility) | LD50 at 168 h (Acute toxicity, oral) | ED (-1 C) ([5]; O.R. (oral route)) | ED (-1 C) ([5]; SC.R (sub-cutaneous route)) | other results |
| --- | --- | --- | --- | --- | --- | --- | --- | --- | --- |
| COC(=O)C1=CCCN(C)C1 [arecoline] | 35 mg/kg | 0.331 µM | – | – | – | – | – | – | duration of action ([1]; in vivo): short duration of action; activity by oral route ([1]; oral route): very weak activity; effect on patients having a memory defect [3]: positive effect |
| C#CCON=CC1=CCCN(O)C1 [Example 4, Hydrochloride of the propargyl ether of 1-hydroxy-1,2,5,6-tetrahydropyridin-3-carboxaldehyde oxime] | 0.9 mg/kg | 5.75 µM | Soluble | Soluble | Soluble | 80 mg/kg | 0.48 mg/kg | 0.49 mg/kg | Variations of the body temperature ([4]; os, 0.75 mg/kg, 30 min): -1.6 °C; Variations of the body temperature ([4]; os, 0.75 mg/kg, 60 min): -1.0 °C; Variations of the body temperature ([4]; os, 0.75 mg/kg, 180 min): -0.1 °C; Variations of the body temperature ([4]; sc, 0.75 mg/kg, 30 min): -1.4 °C; Variations of the body temperature ([4]; sc, 0.75 mg/kg, 60 min): -1.1 °C; Variations of the body temperature ([4]; sc, 0.75 mg/kg, 120 min): -0.1 °C |
| CON=CC1=CCCN(OC(C)=O)C1 [Example 3, Hydrochloride of the methyl ether of 1-acetoxy-1,2,5,6-tetrahydropyridin-3-carboxaldehyde oxime] | 0.5 mg/kg | 12.6 µM | soluble | insoluble | insoluble | 100 mg/kg | 0.22 mg/kg | 0.2 mg/kg | Variations of the body temperature ([4]; os, 0.25 mg/kg, 30 min): -1.2 °C; Variations of the body temperature ([4]; os, 0.25 mg/kg, 60 min): -0.7 °C; Variations of the body temperature ([4]; os, 0.25 mg/kg, 120 min): +0.1 °C; Variations of the body temperature ([4]; os, 0.25 mg/kg, 180 min): +0.1 °C; Variations of the body temperature ([4]; sc, 0.25 mg/kg, 30 min): -1.2 °C; Variations of the body temperature ([4]; sc, 0.25 mg/kg, 60 min): -0.8 °C; Variations of the body temperature ([4]; sc, 0.25 mg/kg, 120 min): +0.1 °C; Variations of the body temperature ([4]; sc, 0.25 mg/kg, 180 min): +0.1 °C |
